Measured values reported in patent publication US9353082B2, “Pharmaceutical compounds” (BIAL—PORTELA & CA, S.A., priority 2008, dated 2016).

Tests used:
FAAH [1] = target: T1, FAAH (Mus musculus, UniProt O08914); test: In vivo FAAH inhibition after oral dosing, remaining activity in liver homogenate (LVh, peripheral tissue); design: species or system NMRI mice; details: liver homogenate; for In Vivo LVh 3 mg·kg 8 h (remaining FAAH activity, % of control): 8 h after dosing, low value = strong inhibitor
T1 construct: A fragment of liver, left lung lobe and brain without cerebellum were removed; from tissue; host or cells: male NMRI mice; brain (without cerebellum) and liver homogenates
T1 sequence (O08914 1-579): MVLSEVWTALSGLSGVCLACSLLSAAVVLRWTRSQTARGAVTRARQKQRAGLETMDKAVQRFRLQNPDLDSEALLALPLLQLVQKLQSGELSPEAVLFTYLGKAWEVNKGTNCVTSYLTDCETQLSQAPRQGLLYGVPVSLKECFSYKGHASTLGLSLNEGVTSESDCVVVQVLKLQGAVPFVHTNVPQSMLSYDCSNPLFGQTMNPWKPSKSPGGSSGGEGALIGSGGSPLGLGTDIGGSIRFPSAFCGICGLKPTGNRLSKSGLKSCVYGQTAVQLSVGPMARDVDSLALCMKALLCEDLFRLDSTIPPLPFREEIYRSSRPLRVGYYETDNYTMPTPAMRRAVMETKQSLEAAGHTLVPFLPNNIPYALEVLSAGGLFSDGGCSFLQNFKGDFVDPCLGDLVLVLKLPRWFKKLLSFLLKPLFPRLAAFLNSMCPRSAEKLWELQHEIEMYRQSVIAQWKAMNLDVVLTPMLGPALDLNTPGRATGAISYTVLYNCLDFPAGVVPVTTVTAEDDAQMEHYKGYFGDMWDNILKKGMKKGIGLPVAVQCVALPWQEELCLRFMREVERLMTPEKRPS
Outline: (§1)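 Male NMRI mice, fasted overnight, got 30 or 3 mg/kg compound orally (0.5% CMC suspension or water) and were compared with vehicle controls. Brain (no cerebellum) and liver homogenates were incubated with 2 μM AEA plus 5 nM 3H-AEA at 37 °C, 10 min for brain and 7 min for liver. Remaining FAAH activity is % of vehicle after blank subtraction.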

FAAH [2] = target: T1, FAAH; test: In vivo FAAH inhibition after oral dosing, remaining activity in brain homogenate (BRh, central nervous tissue); design: species or system NMRI mice; details: brain homogenate; for In Vivo BRh 3 mg·kg 8 h (remaining FAAH activity, % of control): 8 h after dosing, low value = strong inhibitor
Outline: as §1

FAAH [3] = target: T2, FAAH (Rattus norvegicus, UniProt P97612); test: In vitro FAAH activity in rat brain membranes, 3H-AEA substrate, % of control; format: biochemical, Wistar rats; details: low value = strong inhibitor; for In Vitro FAAH activity, 100 nM: 100 nM test compound; for In Vitro 100 nM (FAAH activity, % of control): rat brain membranes, compound at 100 nM
T2 construct: Frozen brains (without cerebellum) from Wistar rats were used; from tissue; host or cells: Wistar rat brain (without cerebellum), washed membrane pellets
T2 sequence (P97612 1-579): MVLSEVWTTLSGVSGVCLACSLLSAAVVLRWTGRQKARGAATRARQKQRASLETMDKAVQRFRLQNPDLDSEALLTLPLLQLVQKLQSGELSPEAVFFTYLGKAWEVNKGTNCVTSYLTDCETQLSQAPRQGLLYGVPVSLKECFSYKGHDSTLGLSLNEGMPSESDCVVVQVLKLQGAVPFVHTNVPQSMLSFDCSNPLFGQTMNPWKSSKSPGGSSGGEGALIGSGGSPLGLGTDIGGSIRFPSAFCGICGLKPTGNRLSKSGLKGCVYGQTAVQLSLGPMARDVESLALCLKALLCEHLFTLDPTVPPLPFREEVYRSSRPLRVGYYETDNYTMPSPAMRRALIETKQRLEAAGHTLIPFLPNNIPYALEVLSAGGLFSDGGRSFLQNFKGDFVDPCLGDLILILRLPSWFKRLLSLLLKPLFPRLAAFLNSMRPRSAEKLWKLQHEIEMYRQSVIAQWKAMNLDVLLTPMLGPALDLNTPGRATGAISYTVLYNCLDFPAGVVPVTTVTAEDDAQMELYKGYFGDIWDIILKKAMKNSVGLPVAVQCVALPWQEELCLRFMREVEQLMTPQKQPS
Outline: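 Wistar rat brain membranes (5 μg protein) preincubated 15 min at 37 °C with compound at 10 μM or 0.1 μM (0.1% DMSO), then 2 μM AEA including 3H-AEA with 0.1% BSA, Tris pH 7.6, 10 min. 3H-ethanolamine counted after charcoal stop; % of no-compound control after blank subtraction.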

Compound | In Vivo LVh 30 mg/kg 1 h, remaining FAAH activity (FAAH [1]) | In Vivo BRh 30 mg/kg 1 h, remaining FAAH activity (FAAH [2]) | In Vitro FAAH activity, 100 nM (FAAH [3]) | In Vivo LVh 3 mg/kg 8 h, remaining FAAH activity (FAAH [1]) | In Vivo BRh 3 mg/kg 8 h, remaining FAAH activity (FAAH [2]) | also measured
CN(C(=O)n1nnc2ccccc21)c1ccc(F)cc1F [Compound 70, N-(2,4-difluorophenyl)-N-methyl-1H-benzo[d][1,2,3]triazole-1-carboxamide] | 42.5 % of control | 52 % of control | 1.9 % of control | – | – | –
CC1(C)COCN1C(=O)n1cnc(-c2ccccc2)c1Cl [Compound 295, (5-chloro-4-phenyl-1H-imidazol-1-yl)(4,4-dimethyloxazolidin-3-yl)methanone] | – | – | – | – | – | In Vivo LVh 3 mg·kg 8 h (remaining FAAH activity, % of control) (FAAH [1]): 32.4 % of control; In Vivo BRh 3 mg·kg 8 h (remaining FAAH activity, % of control) (FAAH [2]): 77.9 % of control; In Vitro 100 nM (FAAH activity, % of control) (FAAH [3]): 99.2 % of control
CN(C(=O)n1nnc2ccccc21)c1ccccc1 [Compound 34, N-methyl-N-phenyl-1H-benzo[d][1,2,3]triazole-1-carboxamide] | 34.3 % of control | 33.6 % of control | 0.6 % of control | – | – | In Vitro FAAH activity, 10 uM (FAAH [3]; 10 uM test compound): 0 % of control
CN(Cc1ccccc1)C(=O)n1nnc2ccccc21 [Compound 53, N-benzyl-N-methyl-1H-benzo[d][1,2,3]triazole-1-carboxamide] | 6.3 % of control | 1.4 % of control | 0 % of control | – | – | –
O=C(N1CCN(Cc2ccc3c(c2)OCO3)CC1)n1nnc2ccccc21.O=C(O)C(=O)O [Compound 48, (1H-benzo[d][1,2,3]triazol-1-yl)(4-(benzo[d][1,3]dioxol-5-ylmethyl)piperazin-1-yl)methanone oxalate] | 20.1 % of control | 21.8 % of control | 0.1 % of control | – | – | –
O=C(N1CCC(OCCCc2ccccc2)CC1)n1nnc2ccccc21 [Compound 135, (1H-benzo[d][1,2,3]triazol-1-yl)(4-(3-phenylpropoxy)piperidin-1-yl)methanone] | – | – | 0.1 % of control | 30.1 % of control | 26.5 % of control | –
CC1(C)COCN1C(=O)n1cnc(-c2ccc(F)cc2F)n1 [Compound 183, (3-(2,4-difluorophenyl)-1H-1,2,4-triazol-1-yl)(4,4-dimethyloxazolidin-3-yl)methanone] | – | – | 102 % of control | 78.1 % of control | 92.4 % of control | –
COc1cccc(-c2cn(C(=O)N3COCC3(C)C)cn2)c1 [Compound 329, (4,4-dimethyloxazolidin-3-yl)(4-(3-methoxyphenyl)-1H-imidazol-1-yl)methanone] | – | – | – | – | – | In Vivo LVh 3 mg·kg 8 h (remaining FAAH activity, % of control) (FAAH [1]): 18.5 % of control; In Vivo BRh 3 mg·kg 8 h (remaining FAAH activity, % of control) (FAAH [2]): 83.3 % of control; In Vitro 100 nM (FAAH activity, % of control) (FAAH [3]): 99.5 % of control
CN(CCCCCc1ccccc1)C(=O)n1nnc2ccccc21 [Compound 129, N-methyl-N-(5-phenylpentyl)-1H-benzo[d][1,2,3]triazole-1-carboxamide] | – | – | 0 % of control | 2 % of control | 2.5 % of control | –
COc1ccc(-c2ncn(C(=O)N3COCC3(C)C)n2)cc1 [Compound 188, (4,4-dimethyloxazolidin-3-yl)(3-(4-methoxyphenyl)-1H-1,2,4-triazol-1-yl)methanone] | – | – | 103.3 % of control | 89 % of control | 78.7 % of control | –
